Results as given in patent US6492167B2, “Ubiquitous potassium-channel proteins and their genes” (JCR Pharmaceuticals Co., Ltd., priority 1995, dated 2002).

What was measured:
ruKATP-1 [1] = biological target: T1, ruKATP-1 (Rattus norvegicus, UniProt Q63664); experiment: Single-channel analysis of HEK 239 cells having ruKATP-1 expressed (inside-out mode); type: cell-based; conditions: for uKATP-1 channel activity (state of channel): inside-out mode
T1 construct: The expression plasmid (pCMV6b) carrying a full-length ruKATP-1 coding cDNA was transfected into HEK 239 cells; expressed in transfected cells; host or cells: HEK 239 (sic) cells, plasmid pCMV6b, Lipofectamine
T1 sequence (Q63664 1-424): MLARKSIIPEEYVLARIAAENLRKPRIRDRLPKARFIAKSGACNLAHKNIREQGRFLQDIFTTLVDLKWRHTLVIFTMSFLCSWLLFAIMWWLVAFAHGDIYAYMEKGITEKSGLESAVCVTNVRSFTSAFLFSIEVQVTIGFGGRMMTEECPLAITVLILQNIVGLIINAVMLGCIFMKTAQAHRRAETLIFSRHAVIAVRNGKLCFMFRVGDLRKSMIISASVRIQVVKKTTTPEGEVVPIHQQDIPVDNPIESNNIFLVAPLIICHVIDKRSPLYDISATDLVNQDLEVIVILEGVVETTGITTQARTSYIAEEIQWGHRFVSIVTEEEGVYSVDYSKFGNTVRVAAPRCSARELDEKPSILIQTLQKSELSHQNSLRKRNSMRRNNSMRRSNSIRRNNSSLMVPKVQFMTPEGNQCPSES
Method: […] cells were cultured in minimum essential Eagle's medium supplemented with 10% of horse serum. The expression plasmid (pCMV6b) carrying a full-length ruKATP-1 coding cDNA was transfected into […] cells with use of Lipofectamine to prepare transformed HEK 293 cells. The transformed cells produced in this. manner were subjected to single channel analysis, with the results being shown in FIGS. 8A and 8B.
FIG. 7 illustrates effects of ATP on the uKATP-1 channel activity as observed in the inside-out mode.

ruKATP-1 [2] = biological target: T1, ruKATP-1; experiment: Electrophysiological analysis of Xenopus oocytes injected with ruKATP-1 cRNA; type: cell-based
Method: A 20 ng quantity of cRNA synthesized in vitro from plasmid pGEM11Z containing a full-length ruKATP-1 cDNA with the RNA polymerase after being linearized through treatment with a restriction enzyme Not1 was injected into Xenopus oocytes, followed by electrophysiological analysis 2 or 3 days later. (see FIG. 7). As is illustrated in FIGS. 7A and 7B, there was observed a K^+ electric current showing weak inward rectification. The K^+ electric current was suppressed by adding Ba^2+ in the exracellular fluid.

Compound: Nc1ncnc2c1ncn2[C@@H]1O[C@H](COP(=O)(O)OP(=O)(O)OP(=O)(O)O)[C@@H](O)[C@H]1O [ATP]
- uKATP-1 channel activity (state of channel) (ruKATP-1 [1]; 1 μM of ATP added inside the cellular membrane): open
- uKATP-1 channel activity (state of channel) (ruKATP-1 [1]; addition of ATP): closed completely

Compound: [Ba+2] [Ba^2+]
- inward rectification (inward current) of oocytes injected with ruKATP-1 cRNA (ruKATP-1 [2]; 300 μM Ba2+ added to the extracellular fluid, 45 mM [K+] extracellular fluid): blocked
- K+ electric current showing weak inward rectification (ruKATP-1 [2]; Ba2+ added in the extracellular fluid, concentration not given): suppressed

Compound: [Mg+2] [Mg^2+]
- outward electric current flowing through the channel (ruKATP-1 [1]; intracellular Mg2+, transformed HEK cells): suppressed
